Laboratory results as given in ChEMBL document CHEMBL3272105, “Quantitative structure-activity studies on monoamine oxidase inhibitors” (J Med Chem, 1976).

Legend:
[1] = Octanol-water partition coefficient, log P of the compound; type: physicochemical
[2] = test system: Rattus norvegicus; test: Ratio of compound to iproniazid for in vivo inhibition of monoamine oxidase in rat brain assessed as increase in serotonin production after 16 hrs; type: functional

Compound	logP ([1]; read-out: logP)	Ratio [2]	logP [1]
CC(C)NNC(=O)c1cccs1	1.61	198	–
CC(C)NNC(=O)c1ccsc1	1.61	192	–
CC(C)NNC(=O)c1ccccn1	0.32	191	–
CC(C)NNC(=O)c1ccco1	–	156	–
CC(C)NNC(=O)c1cnccn1	–	152	–
CC(C)NNC(=O)c1ccc(Cl)cc1	2.84	134	–
CC(C)NNC(=O)c1cccc([N+](=O)[O-])c1	1.85	125	–
CC(C)NNC(=O)c1cccc(Cl)c1	2.84	123	–
CC(C)NNC(=O)c1cccnc1	0.32	111	–
CC(C)NNC(=O)c1ccc(C(C)C)cc1	3.66	97	–
CC(C)NNC(=O)c1cc[nH]n1	–	84	–
Cc1ccc(C(=O)NNC(C)C)cc1C	3.25	76	–
COc1ccc(C(=O)NNC(C)C)cc1	2.11	63	–
CC(C)NNC(=O)c1ccccc1N	0.9	60	–
Cc1ncsc1C(=O)NNC(C)C	0.44	38	–
CC(C)NNC(=O)c1c[nH]nn1	–	38	–
CC(C)NNC(=O)c1ccc(N)cc1	0.9	15	–
CC(C)NNC(=O)c1ccc(O)cc1	1.46	11	–
CC(C)NNC(=O)c1cccnn1	–	0	–
CC(C)NNC(=O)c1ccccc1O	1.46	0	–
Cc1ncc(C(=O)NNC(C)C)c(C)n1	-0.4	0	–
Cc1noc(C)c1C(=O)NNC(C)C	1.2	0	–
CC(C)NNC(=O)c1ccncc1 [IPRONIAZID]	–	100	0.32
